Assay results taken from patent US10039729B2, “Use of kukoamine A and kukoamine B” (Tianjin Chase Sun Pharmaceutical Co., Ltd., priority 2010, dated 2018).
Read-outs that look alike come from different tables or passages of the source.

Assays:
[1] = Affinity biosensor binding with LPS
Description: Immobilization of lipid A and CpG DNA: Using Optically-Based Affinity Biosensors technology, Lipid A, the biologic active centres of LPS, and CpG DNA were respectively, immobilized on the reacting surfaces of cuvettes in an IAsys plus affinity biosensor according to the manufacturer's instructions of IAsys Affinity Sensor. The end of hydrophobic side chain of lipid A was immobilized on cuvette with hydrophobic surface, and the phosphate group (active group of lipid A) at the other end was floating and exposing to the outside, which act as target spot of binding with active constituents for disease treatment in traditional Chinese medicine. The active constituents in solution were binded to lipid A through electrostatic interaction. Biotinylated CpG DNA was immobilized on the surface of a biotin cuvette by linking to avidin, which had been coated on the surface of a biotin cuvette, and then the unlabeled group of CpG DNA was floating and exposing to the outside, which act as target spot of binding with active constituents for disease treatment in traditional Chinese medicine. The active constituents in solution were binded to CpG DNA through the electrostatic interaction and embodiment.
Detection of the aqueous herbal extract: The crude drugs of 114 traditional Chinese herbs were pulverized. 1 g of each powder was added with 10 ml distilled water, boiled at 100° C. for 1.5 h, centrifuged at 4000 rpm for 20 min, filtrated and then collected the supernatant. 5 μl of aqueous herbal extracts of each herb were used to detect their binding with lipid A or CpG DNA. […]
9.1 Methods: KB was separately diluted with PBS to make solutions of 0.25, 0.5, 1, 2 and 4 μM; 5 μl of each solution was separately loaded; binding reaction of KB of various concentration with LPS and CpG DNA was assayed according to the methods in embodiment 1. The dissociation equilibrium constant (KD) of KB with LPS and CpG DNA was calculated using the IAsys FASTfit software. […]

[2] = Affinity biosensor binding with immobilized lipid A; details: 100 μM operating solution, 5 μl loaded
Description: Immobilization of lipid A and CpG DNA: Using Optically-Based Affinity Biosensors technology, Lipid A, the biologic active centres of LPS, and CpG DNA were respectively, immobilized on the reacting surfaces of cuvettes in an IAsys plus affinity biosensor according to the manufacturer's instructions of IAsys Affinity Sensor. The end of hydrophobic side chain of lipid A was immobilized on cuvette with hydrophobic surface, and the phosphate group (active group of lipid A) at the other end was floating and exposing to the outside, which act as target spot of binding with active constituents for disease treatment in traditional Chinese medicine. The active constituents in solution were binded to lipid A through electrostatic interaction. […]
2.1.1 Methods: 500 g Lycii cortex was added with 5 L distilled water, soaked for 24 h, boiled at 100 for 1 h, filtered by coarse filter paper, and centrifuged at 8000 rpm/min for 30 min, and the supernatant was collected and concentrated to 1 L under reduced pressure. […] Their binding activity with lipid A and CpG DNA were detected according to methods of embodiment 1. […]
3.1 Methods: KA and KB were separately dissolved to make 100 μM operating solution; 5 μl of the solution was loaded; their binding activity with lipid A and CpG DNA were detected according to methods of embodiment 1.

RAW264.7 cells = assay: Binding of fluorescently-labeled LPS and CpG DNA with RAW264.7 cells (flow cytometry); format: cell-based, murine; details: 30 min; for fluorescence intensity of CpG DNA in RAW264.7 cells / fluorescence intensity of LPS in RAW264.7 cells: 200 μg/ml, p<0.01; for fluorescence intensity of CpG DNA in RAW264.7 cells: 5-FAM CpG DNA 10 μg/ml; for fluorescence intensity of LPS in RAW264.7 cells: FITC-labeled LPS 400 ng/ml
Procedure: 5.1 Methods: RAW264.7 cells were diluted to 1×10^6/ml in DMEM supplemented with 10% (v/v) NCS, added into 24-well cell culture plates, cultured at 37° C. in a 5% CO2 humidified incubator for 4 h, added with KA and KB (0, 200 μg/ml) after cells attachment, and then added with FITC-labeled LPS (final concentration of 400 ng/ml) and 5-FAM CpG DNA (final concentration of 10 μg/ml); at the same time, medium group without any reagent was established; subsequently, RAW264.7 cells were incubated for 30 min, washed thrice in PBS, resuspended with a pipet and transferred into EP tube, and immobilized with 4% paraform for 10 min; then cells were washed thrice in PBS, made into cell suspension, and detected by flow cytometry; the detections of each group were repeated thrice. Mean fluorescence intensity was expressed by means of Mean±standard deviation.
20.1 Methods: RAW264.7 cells was diluted to 1×10^6/ml in DMEM supplemented with 10% (v/v) NCS; 2 ml of the above suspension was added into 24-well cell culture plates and cultured at 37° C. in a 5% CO2 humidified incubator for 4 h; for the purpose of experiment three groups were established: medium group, stimulation group and KB treatment group; no reagent was added into medium group; stimulation group was added with FITC-LPS (200 ng/ml) and 5-FAM-CpG DNA (10 μg/ml); KB treatment group was added with KB (final concentrations of 50, 100 and 200 μM) in the meantime of adding LPS and CpG DNA; cells continued to be cultured for 30 min, washed thrice with PBS, and stored in dark place until the fluorescence intensity of cell membrane surfaces was detected by flow cytometry.

Compound | affinity with LPS ([1]; 4 μM solution, 5 μl loaded) | affinity with lipid A [2] | fluorescence intensity of CpG DNA in RAW264.7 cells (RAW264.7 cells) | fluorescence intensity of LPS in RAW264.7 cells (RAW264.7 cells) | Kd ([1]; KB 0.25-4 μM, IAsys FASTfit, read-out: dissociation equilibrium constant (KD) with LPS) | Kd ([1]; with LPS, read-out: dissociation equilibrium constant (KD = kass/kdiss)) | mean fluorescence intensity (MFI) of cell membrane, 5-FAM-CpG DNA (RAW264.7 cells; KB 50, 100 and 200 μM, 5-FAM-CpG DNA 10 μg/ml) | mean fluorescence intensity (MFI) of cell membrane, FITC-LPS (RAW264.7 cells; KB 50, 100 and 200 μM, FITC-LPS 200 ng/ml)
polymyxin B [PMB, reference compound] | high affinity | – | – | – | – | – | – | –
O=C(CCc1ccc(O)c(O)c1)NCCCNCCCCNCCCNC(=O)CCc1ccc(O)c(O)c1 [KA, Kukoamine A] | – | high affinity | significantly decrease the fluorescence intensity | significantly decrease the fluorescence intensity | – | – | – | –
NCCCN(CCCCNCCCNC(=O)CCc1ccc(O)c(O)c1)C(=O)CCc1ccc(O)c(O)c1 [KB, Kukoamine B] | – | high affinity | significantly decrease the fluorescence intensity | significantly decrease the fluorescence intensity | 1240 nM | 1240 nM | decrease the MFI of cell membrane in a dose-dependent manner | decrease the MFI of cell membrane in a dose-dependent manner
